Where two headings read alike, the source gives them in different places.
Key:
[1] = tested on: mouse immortalized TT-D6 Scx-luciferase (ScxL) cell line; transcriptional activation of Scleraxis (Scx) gene; test: SCX-LUC in vitro assay (scleraxis promoter luciferase reporter); assay type: cell-based; conditions: Mus musculus, 96 h
[2] = tested on: Scleraxis (Scx) gene expression in rat tail tendon fascicles; test: Ex vivo assay, tendon fascicles, Scleraxis mRNA (qPCR); assay type: cell-based, Sprague Dawley rat; conditions: 96 h
[3] = tested on: Tenomodulin (Tnmd) gene expression in rat tail tendon fascicles; test: Ex vivo assay, tendon fascicles, Tenomodulin mRNA (qPCR); assay type: cell-based, Sprague Dawley rat; conditions: 96 h
[4] = tested on: collagen type 1 (Col1a2) gene expression in rat tail tendon fascicles; test: Ex vivo assay, tendon fascicles, collagen type 1 mRNA (qPCR); assay type: cell-based, Sprague Dawley rat; conditions: 96 h
[5] = Examples table, TT-D6 Scx-luciferase cells, 1 ng/ml TGFβ1, four days, read-out: Scx-Luc (EC50 μM)
[6] = Examples table, rat tail tendon fascicles, four days, delta-delta Ct, read-out: Ex vivo Scx (EC50 μM)
[7] = Examples table, rat tail tendon fascicles, four days, delta-delta Ct, read-out: Ex vivo Tnmd (EC50 μM)
[8] = Examples table, rat tail tendon fascicles, four days, delta-delta Ct, read-out: Ex vivo Col1a2 (EC50 μM)
[9] = Rattus norvegicus, read-out: Ex vivo SCX (EC50 uM)
[10] = Rattus norvegicus, read-out: Ex vivo Tnmd (EC50 uM)
[11] = Rattus norvegicus, read-out: Ex vivo Col1a2 (EC50 uM)
[12] = Table 1, TT-D6 Scx-luciferase cells, 1 ng/ml TGFβ1, four days, read-out: Scx-Luc (EC50 uM)

Compound | EC50 [1, 5] [µM] | EC50 [2, 6] [µM] | EC50 [3, 7] [µM] | EC50 [4, 8] [µM] | also measured
Nc1n[nH]c2ccc(-c3ccc(S(=O)(=O)NC4CCS(=O)(=O)C4)cc3Cl)nc12 (stereo not drawn) [Example 31, 4-(3-amino-1H-pyrazolo[4,3-b]pyridin-5-yl)-3-chloro-N-(1,1-dioxidotetrahydrothiophen-3-yl)benzenesulfonamide] | 0.411 | 2.31 | 2.76 | 2.63 | –
O=C(Nc1nc2cccc(-c3ccc(CN4CCS(=O)(=O)CC4)cc3)n2n1)C1CC1 [reference compound] | – | – | – | – | EC50 ([1]; read-out: Scx-Luc (EC50 uM)): 4.32 µM; EC50 [2, 9]: 5.34 µM; EC50 [3, 10]: 6.93 µM; EC50 [4, 11]: 5.01 µM
Nc1n[nH]c2ccc(-c3ccc(S(=O)(=O)NC4CS(=O)(=O)C4)cc3Cl)nc12 [Example 92, 4-(3-amino-1H-pyrazolo[4,3-b]pyridin-5-yl)-3-chloro-N-(1,1-dioxidothietan-3-yl)benzenesulfonamide] | 0.968 | 4.89 | 6.28 | 1.35 | –
Nc1n[nH]c2ccc(-c3ccc(S(=O)(=O)N4CC(F)(F)C[C@H]4CO)cc3Cl)nc12 [Example 18, (S)-(1-((4-(3-amino-1H-pyrazolo[4,3-b]pyridin-5-yl)-3-chlorophenyl)sulfonyl)-4,4-difluoropyrrolidin-2-yl)methanol] | 0.764 | 1.77 | 0.75 | 1.83 | –
Cc1cc(S(=O)(=O)Nc2ccccc2)ccc1-c1ccc2[nH]nc(N)c2n1 [Example 16, 4-(3-amino-1H-pyrazolo[4,3-b]pyridin-5-yl)-3-methyl-N-phenylbenzenesulfonamide] | 0.61 | 3.86 | 2.81 | 4.65 | –
Nc1n[nH]c2ccc(-c3ccc(NS(=O)(=O)c4ccc5ccccc5c4)cc3Cl)nc12 [Example 82, N-(4-(3-amino-1H-pyrazolo[4,3-b]pyridin-5-yl)-3-chlorophenyl)naphthalene-2-sulfonamide] | 2.61 | > 10 | 4.87 | 7.27 | –
CC[C@@](C)(Nc1ccnc(-c2c[nH]c3ncccc23)n1)C(=O)NCC(F)(F)F [reference compound] | – | – | – | – | EC50 ([1]; read-out: Scx-Luc (EC50 uM)): 0.03 µM; EC50 [2, 9]: 1.65 µM; EC50 [3, 10]: 1.77 µM; EC50 [4, 11]: 0.88 µM
CC(O)(C1CN(S(=O)(=O)c2ccc(-c3ccc4[nH]nc(N)c4n3)c(Cl)c2)CCN1)C(F)(F)F (stereo not drawn) [Example 89, 2-(4-((4-(3-amino-1H-pyrazolo[4,3-b]pyridin-5-yl)-3-chlorophenyl)sulfonyl)piperazin-2-yl)-1,1,1-trifluoropropan-2-ol] | 2.19 | 4.44 | 5.01 | 7.27 | –
N#CC[C@H](C1CCCC1)n1cc(-c2ncnc3[nH]ccc23)cn1 [reference compound] | – | – | – | – | EC50 ([1]; read-out: Scx-Luc (EC50 uM)): 0.12 µM; EC50 [2, 9]: 3.13 µM; EC50 [3, 10]: 0.74 µM; EC50 [4, 11]: 2.64 µM
Nc1n[nH]c2ccc(-c3ccc(S(=O)(=O)Nc4ccccc4)cc3Cl)nc12 [Example 38, 4-(3-amino-1H-pyrazolo[4,3-b]pyridin-5-yl)-3-chloro-N-phenylbenzenesulfonamide] | 0.61 | 0.188 | 1.89 | 0.396 | –
Nc1n[nH]c2ccc(-c3ccc(NS(=O)(=O)Cc4ccccc4)cc3Cl)nc12 [Example 59, N-(4-(3-amino-1H-pyrazolo[4,3-b]pyridin-5-yl)-3-chlorophenyl)-1-phenylmethanesulfonamide] | 4.32 | > 10 | 4.61 | 5.71 | –
Cc1cc(S(=O)(=O)NC2CC(F)(F)C2)ccc1-c1ccc2[nH]nc(N)c2n1 [Example 8, 4-(3-amino-1H-pyrazolo[4,3-b]pyridin-5-yl)-N-(3,3-difluorocyclobutyl)-3-methylbenzenesulfonamide] | 0.346 | 0.11 | 0.261 | 1.29 | –
Cc1cc(Nc2nc(N[C@@H](C)c3ncc(F)cn3)ncc2Cl)n[nH]1 [reference compound] | – | – | – | – | EC50 [1, 12]: 0.008 µM; EC50 [2, 9]: 3.37 µM; EC50 [3, 10]: 3.3 µM; EC50 [4, 11]: 2.61 µM
Cc1cc(S(=O)(=O)N(C)[C@H]2C[C@](O)(C(F)(F)F)C2)ccc1-c1ccc2[nH]nc(N)c2n1 [Example 9, 4-(3-amino-1H-pyrazolo[4,3-b]pyridin-5-yl)-N-((1s,3s)-3-hydroxy-3-(trifluoromethyl)cyclobutyl)-N,3-dimethylbenzenesulfonamide] | 0.46 | 2.27 | 2.14 | 0.577 | –
Nc1n[nH]c2ccc(-c3ccc(S(=O)(=O)NC4CCS(=O)(=O)CC4)cc3Cl)nc12 [Example 50, 4-(3-amino-1H-pyrazolo[4,3-b]pyridin-5-yl)-3-chloro-N-(1,1-dioxidotetrahydro-2H-thiopyran-4-yl)benzenesulfonamide] | > 10 | 2.33 | 6.3 | 6.37 | –
Nc1n[nH]c2ccc(-c3ccc(NS(=O)(=O)c4ccc5c(c4)OCO5)cc3Cl)nc12 [Example 11, N-(4-(3-amino-1H-pyrazolo[4,3-b]pyridin-5-yl)-3-chlorophenyl)benzo[d][1,3]dioxole-5-sulfonamide] | 0.801 | 3.05 | 0.841 | 2.46 | –
Nc1n[nH]c2ccc(-c3ccc(S(=O)(=O)NCCO)cc3Cl)nc12 [Example 72, 4-(3-amino-1H-pyrazolo[4,3-b]pyridin-5-yl)-3-chloro-N-(2-hydroxyethyl)benzenesulfonamide] | 4.09 | 3.94 | 3.42 | 3.28 | –
N#C[C@H]1CC(=O)CC[C@@H]1n1cc(C(N)=O)c(Nc2ccc(C(F)(F)F)cc2)n1 [reference compound] | – | – | – | – | EC50 [1, 12]: 1.24 µM; EC50 ([2]; Table 1, rat tail tendon fascicles, four days, delta-delta Ct, read-out: Ex vivo SCX (EC50 uM)): 0.85 µM; EC50 ([3]; Table 1, rat tail tendon fascicles, four days, delta-delta Ct, read-out: Ex vivo Tnmd (EC50 uM)): 4.83 µM; EC50 ([4]; Table 1, rat tail tendon fascicles, four days, delta-delta Ct, read-out: Ex vivo Col1a2 (EC50 uM)): 0.94 µM
Cc1cc(S(=O)(=O)N2CC(O)(C(F)(F)F)C2)ccc1-c1ccc2[nH]nc(N)c2n1 [Example 66, 1-((4-(3-amino-1H-pyrazolo[4,3-b]pyridin-5-yl)-3-methylphenyl)sulfonyl)-3-(trifluoromethyl)azetidin-3-ol] | 0.794 | 0.89 | 0.719 | 0.921 | –
Cc1cc(S(=O)(=O)NC2CCCC(O)C2)ccc1-c1ccc2[nH]nc(N)c2n1 (stereo not drawn) [Example 65, 4-(3-amino-1H-pyrazolo[4,3-b]pyridin-5-yl)-N-(3-hydroxycyclohexyl)-3-methylbenzenesulfonamide] | 0.122 | – | – | – | –
COc1ccc(S(=O)(=O)Nc2ccc(-c3ccc4[nH]nc(N)c4n3)c(Cl)c2)cc1 [Example 5, N-(4-(3-amino-1H-pyrazolo[4,3-b]pyridin-5-yl)-3-chlorophenyl)-4-methoxybenzenesulfonamide] | 0.909 | – | – | – | –
Nc1n[nH]c2ccc(-c3ccc(S(=O)(=O)N4CC(F)(F)C4)cc3Cl)nc12 [Example 74, 5-(2-chloro-4-((3,3-difluoroazetidin-1-yl)sulfonyl)phenyl)-1H-pyrazolo[4,3-b]pyridin-3-amine] | 2.03 | – | – | – | –
Cc1cc(S(=O)(=O)N[C@H]2CC[C@H](O)CC2)ccc1-c1ccc2[nH]nc(N)c2n1 [Example 54, 4-(3-amino-1H-pyrazolo[4,3-b]pyridin-5-yl)-N-((1r,4r)-4-hydroxycyclohexyl)-3-methylbenzenesulfonamide] | 1.13 | – | – | – | –
Nc1n[nH]c2ccc(-c3ccc(NS(=O)(=O)c4ccc(C(F)(F)F)cc4)cc3Cl)nc12 [Example 78, N-(4-(3-amino-1H-pyrazolo[4,3-b]pyridin-5-yl)-3-chlorophenyl)-4-(trifluoromethyl)benzenesulfonamide] | 2.44 | – | – | – | –
CC1(C)CCC(NS(=O)(=O)c2ccc(-c3ccc4[nH]nc(N)c4n3)c(Cl)c2)CC1 [Example 24, 4-(3-amino-1H-pyrazolo[4,3-b]pyridin-5-yl)-3-chloro-N-(4,4-dimethylcyclohexyl)benzenesulfonamide] | 1.59 | – | – | – | –
C[C@]1(O)CC[C@H](NS(=O)(=O)c2ccc(-c3ccc4[nH]nc(N)c4n3)c(Cl)c2)CC1 [Example 58, 4-(3-amino-1H-pyrazolo[4,3-b]pyridin-5-yl)-3-chloro-N-((1r,4r)-4-hydroxy-4-methylcyclohexyl)benzenesulfonamide] | 1.51 | – | – | – | –
Cc1cccc(S(=O)(=O)Nc2ccc(-c3ccc4[nH]nc(N)c4n3)c(Cl)c2)c1 [Example 84, N-(4-(3-amino-1H-pyrazolo[4,3-b]pyridin-5-yl)-3-chlorophenyl)-3-methylbenzenesulfonamide] | 0.045 | – | – | – | –
Nc1n[nH]c2ccc(-c3ccc(NS(=O)(=O)[C@@H]4CCCC[C@@H]4O)cc3Cl)nc12 [Example 60, (1R,2S)—N-(4-(3-amino-1H-pyrazolo[4,3-b]pyridin-5-yl)-3-chlorophenyl)-2-hydroxycyclohexane-1-sulfonamide] | 3.04 | – | – | – | –
C1=C/COCc2cc(ccc2OCCN2CCCC2)Nc2nccc(n2)-c2cccc(c2)COC/1 [reference compound] | – | – | – | – | EC50 [1, 12]: 1.06 µM
Nc1n[nH]c2ccc(-c3ccc(NS(=O)(=O)c4cccc(F)c4)cc3Cl)nc12 [Example 41, N-(4-(3-amino-1H-pyrazolo[4,3-b]pyridin-5-yl)-3-chlorophenyl)-3-fluorobenzenesulfonamide] | 2.25 | – | – | – | –

Source: patent US10766894B2, “Aza-indazole compounds for use in tendon and/or ligament injuries” (NOVARTIS AG, priority 2016, dated 2020)
